One test has as its target Histone deacetylase 8 (Homo sapiens, UniProt Q9BY41). Briefly: Inhibition of human HDAC8 by FLINT assay.
For test [1], the target named is Potassium voltage-gated channel subfamily A member 5 (Homo sapiens, UniProt P22460). Description: Blockade of human Kv1.5 by electrophysiology assay.
Another test concerns the target Histone deacetylase 11 (Homo sapiens, UniProt Q96DB2). Description: Inhibition of human HDAC11 by FLINT assay.
The target of test [2] is Acetylcholine receptor subunit alpha (Homo sapiens, UniProt P02708). Briefly: Antagonist activity at human alpha 1 nAChR by intracellular Ca fluorescence assay. Format: cell-based.
The next test addresses Histone deacetylase 9 (Homo sapiens, UniProt Q9UKV0). Description: Inhibition of human HDAC9 by FLINT assay.
The next test has as its target Mu-type opioid receptor (Homo sapiens, UniProt P35372). Description: Agonist activity at human OPRM-1 by SPA. The class given is functional.
For test [3], the target named is T1, 5-hydroxytryptamine receptor 2C (Homo sapiens, UniProt P28335).
T1 sequence (P28335 whole entry): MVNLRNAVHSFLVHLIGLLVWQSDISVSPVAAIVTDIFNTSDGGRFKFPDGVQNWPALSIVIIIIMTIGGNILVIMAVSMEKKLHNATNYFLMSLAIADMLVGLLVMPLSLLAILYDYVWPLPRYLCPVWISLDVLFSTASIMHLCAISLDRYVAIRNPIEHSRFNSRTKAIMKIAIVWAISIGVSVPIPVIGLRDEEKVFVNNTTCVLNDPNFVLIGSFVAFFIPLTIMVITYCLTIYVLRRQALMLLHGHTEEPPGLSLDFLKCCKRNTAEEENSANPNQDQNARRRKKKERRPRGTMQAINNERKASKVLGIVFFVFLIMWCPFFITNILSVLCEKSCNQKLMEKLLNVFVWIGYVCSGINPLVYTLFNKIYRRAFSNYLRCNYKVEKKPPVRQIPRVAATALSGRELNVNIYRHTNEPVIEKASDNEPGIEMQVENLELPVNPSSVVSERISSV
Description: Agonist activity at human 5-HT2C by intracellular Ca luminescence assay. Format: functional, cell-based.

Test [4] concerns the target Lysine-specific histone demethylase 1A (Homo sapiens, UniProt O60341). Description: Inhibition of human LSD-1 by luminescence assay.
The nature of test [5]: Agonist activity at human 5-HT3 by intracellular Ca fluorescence assay. Format: cell-based.
The next test deals with Substance-P receptor (Homo sapiens, UniProt P25103). Briefly: Antagonist activity at human NK-1 by intracellular Ca luminescence assay. The class given is functional, cell-based.
Test [6] concerns the target 5-hydroxytryptamine receptor 1B (Homo sapiens, UniProt P28222). Briefly: Antagonist activity at human 5-HT1B by SPA. Format: functional.
Test [7] has as its target Alpha-1B adrenergic receptor (Homo sapiens, UniProt P35368). Description: Antagonist activity at human adrenergic alpha 1B by intracellular Ca luminescence assay. Format: functional, cell-based.
A further test deals with Cannabinoid receptor 2 (Homo sapiens, UniProt P34972). Description: Agonist activity at human cannabinoid CB2 receptor by Yeast FDGlu assay. The class given is functional.
For a further test, the target named is D(2) dopamine receptor (Homo sapiens, UniProt P14416). Description: Antagonist activity at human dopamine 2 receptor by SPA. The class given is functional.
Test [8] deals with Polyamine deacetylase HDAC10 (Homo sapiens, UniProt Q969S8). Description: Inhibition of human HDAC10 by FLINT assay.
The target in test [9] is Sodium-dependent noradrenaline transporter (Homo sapiens, UniProt P23975). Description: Binding affinity to human NET by SPA.
Test [10] has as its system Macrophage. Description: Antiinflammatory activity in human primary macrophages assessed as effect on LPS-induced BMP6 gene expression at 30 uM measured after 2 hrs by RT-PCR array (reference value: 1526 a.u.). Format: functional.
In test [11] the test system is Macrophage. Description: Antiinflammatory activity in human primary macrophages assessed as effect on LPS-induced IL16 gene expression at 30 uM measured after 2 hrs by RT-PCR array (reference value: 8635 a.u.). The class given is functional.
For test [12], the system named is Macrophage. Briefly: Antiinflammatory activity in human primary macrophages assessed as effect on LPS-induced IFNA2 gene expression at 30 uM measured after 2 hrs by RT-PCR array (reference value: 1099 a.u.). The class given is functional.
For test [13], the system named is Macrophage. Briefly: Antiinflammatory activity in human primary macrophages assessed as effect on LPS-induced IL12B gene expression at 30 uM measured after 2 hrs by RT-PCR array (reference value: 17908 a.u.). Format: functional.
The test system of test [14] is Macrophage. Description: Antiinflammatory activity in human primary macrophages assessed as effect on LPS-induced TNFSF12 gene expression at 30 uM measured after 2 hrs by RT-PCR array (reference value: 12514 a.u.). Format: functional.
Test [15] deals with Macrophage. Briefly: Antiinflammatory activity in human primary macrophages assessed as effect on LPS-induced IL24 gene expression at 30 uM measured after 2 hrs by RT-PCR array (reference value: 12164 a.u.). Format: functional.
Test [16] relates to Macrophage. Briefly: Antiinflammatory activity in human primary macrophages assessed as effect on LPS-induced CSF1 gene expression at 30 uM measured after 2 hrs by RT-PCR array (reference value: 287895 a.u.). The class given is functional.
Test [17] has as its system Macrophage. Briefly: Antiinflammatory activity in human primary macrophages assessed as effect on LPS-induced IL8 gene expression at 30 uM measured after 2 hrs by RT-PCR array (reference value: 11155386 a.u.). The class given is functional.
In test [18] the test system is Macrophage. Description: Antiinflammatory activity in human primary macrophages assessed as effect on LPS-induced IL11 gene expression at 30 uM measured after 2 hrs by RT-PCR array (reference value: 6 a.u.). The class given is functional.
The subject of test [19] is Macrophage. Briefly: Antiinflammatory activity in human primary macrophages assessed as effect on LPS-induced IL6 gene expression at 30 uM measured after 2 hrs by RT-PCR array (reference value: 3511720 a.u.). Format: functional.
The test system of test [20] is Macrophage. Description: Antiinflammatory activity in human primary macrophages assessed as effect on LPS-induced TNFSF4 gene expression at 30 uM measured after 2 hrs by RT-PCR array (reference value: 880 a.u.). The class given is functional.
Test [21] has as its system Macrophage. Briefly: Antiinflammatory activity in human primary macrophages assessed as effect on LPS-induced CSF2 gene expression at 30 uM measured after 2 hrs by RT-PCR array (reference value: 248134 a.u.). The class given is functional.
In test [22] the test system is Macrophage. Briefly: Antiinflammatory activity in human primary macrophages assessed as effect on LPS-induced IL1A gene expression at 30 uM measured after 2 hrs by RT-PCR array (reference value: 1292761 a.u.). The class given is functional.
For test [23], the system named is Macrophage. Briefly: Antiinflammatory activity in human primary macrophages assessed as effect on LPS-induced TNFSF13 gene expression at 30 uM measured after 2 hrs by RT-PCR array (reference value: 47108 a.u.). Format: functional.
For test [24], the system named is Macrophage. Briefly: Antiinflammatory activity in human primary macrophages assessed as effect on LPS-induced IL1F5 gene expression at 30 uM measured after 2 hrs by RT-PCR array (reference value: 2464 a.u.). The class given is functional.
Test [25] deals with Macrophage. Description: Antiinflammatory activity in human primary macrophages assessed as effect on LPS-induced INHBA gene expression at 30 uM measured after 2 hrs by RT-PCR array (reference value: 785853 a.u.). Format: functional.
For test [26], the system named is Macrophage. Description: Antiinflammatory activity in human primary macrophages assessed as effect on LPS-induced IL20 gene expression at 30 uM measured after 2 hrs by RT-PCR array (reference value: 2040 a.u.). The class given is functional.

Drawing on ChEMBL document CHEMBL5678807, “A selective jumonji H3K27 demethylase inhibitor modulates the proinflammatory macrophage response” (Nature, 2012), this text covers XC50 and Activity for four molecules.

A value given as a limit tells only on which side of the number the result lay.

Alpha-1B adrenergic receptor, sequence (P35368 whole entry): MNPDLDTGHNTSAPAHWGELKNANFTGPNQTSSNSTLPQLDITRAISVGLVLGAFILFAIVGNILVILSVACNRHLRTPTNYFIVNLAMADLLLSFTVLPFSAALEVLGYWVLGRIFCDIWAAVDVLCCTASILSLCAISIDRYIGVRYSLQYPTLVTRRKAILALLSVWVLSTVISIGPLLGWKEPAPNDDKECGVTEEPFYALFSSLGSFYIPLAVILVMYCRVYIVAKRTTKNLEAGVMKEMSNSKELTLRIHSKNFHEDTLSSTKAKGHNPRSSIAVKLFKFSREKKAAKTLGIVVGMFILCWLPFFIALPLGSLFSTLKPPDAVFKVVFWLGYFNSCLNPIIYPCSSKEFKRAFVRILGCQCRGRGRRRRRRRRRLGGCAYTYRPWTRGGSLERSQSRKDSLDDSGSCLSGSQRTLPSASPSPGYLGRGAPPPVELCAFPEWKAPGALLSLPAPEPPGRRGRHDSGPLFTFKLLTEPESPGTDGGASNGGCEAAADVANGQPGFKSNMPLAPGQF
Histone deacetylase 11, sequence (Q96DB2 whole entry): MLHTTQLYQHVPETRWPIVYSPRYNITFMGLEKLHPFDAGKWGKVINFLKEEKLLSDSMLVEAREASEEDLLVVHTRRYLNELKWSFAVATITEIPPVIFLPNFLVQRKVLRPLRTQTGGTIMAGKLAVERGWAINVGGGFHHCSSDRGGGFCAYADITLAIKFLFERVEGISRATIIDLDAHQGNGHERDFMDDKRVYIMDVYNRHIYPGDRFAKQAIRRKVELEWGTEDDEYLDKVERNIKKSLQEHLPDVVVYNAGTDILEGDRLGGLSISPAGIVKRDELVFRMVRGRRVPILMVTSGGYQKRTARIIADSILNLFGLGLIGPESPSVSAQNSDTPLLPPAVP
D(2) dopamine receptor, sequence (P14416 whole entry): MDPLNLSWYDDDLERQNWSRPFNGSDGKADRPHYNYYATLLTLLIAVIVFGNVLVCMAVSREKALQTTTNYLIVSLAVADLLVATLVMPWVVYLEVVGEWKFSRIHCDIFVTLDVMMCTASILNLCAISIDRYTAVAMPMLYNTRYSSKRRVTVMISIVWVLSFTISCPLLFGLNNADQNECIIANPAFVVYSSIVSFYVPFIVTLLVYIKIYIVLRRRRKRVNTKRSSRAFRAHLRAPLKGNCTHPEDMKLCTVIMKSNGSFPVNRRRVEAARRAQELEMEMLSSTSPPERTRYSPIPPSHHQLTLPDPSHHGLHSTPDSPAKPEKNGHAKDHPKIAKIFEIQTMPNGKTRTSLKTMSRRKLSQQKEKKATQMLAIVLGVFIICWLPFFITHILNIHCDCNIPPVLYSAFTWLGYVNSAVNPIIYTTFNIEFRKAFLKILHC
Acetylcholine receptor subunit alpha, sequence (P02708 whole entry): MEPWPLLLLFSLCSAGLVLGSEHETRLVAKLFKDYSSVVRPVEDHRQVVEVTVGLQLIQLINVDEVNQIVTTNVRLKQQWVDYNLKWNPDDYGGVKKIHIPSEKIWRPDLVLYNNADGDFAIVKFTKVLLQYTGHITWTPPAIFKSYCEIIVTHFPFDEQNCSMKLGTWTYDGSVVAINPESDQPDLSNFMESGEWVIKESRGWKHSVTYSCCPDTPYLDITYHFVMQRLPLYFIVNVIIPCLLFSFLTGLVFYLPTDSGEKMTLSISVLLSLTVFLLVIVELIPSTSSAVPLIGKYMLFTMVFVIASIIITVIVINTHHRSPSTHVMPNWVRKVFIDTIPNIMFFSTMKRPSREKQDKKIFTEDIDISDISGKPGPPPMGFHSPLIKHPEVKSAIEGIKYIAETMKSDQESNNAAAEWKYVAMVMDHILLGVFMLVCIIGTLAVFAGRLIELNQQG
Histone deacetylase 9, sequence (Q9UKV0 whole entry): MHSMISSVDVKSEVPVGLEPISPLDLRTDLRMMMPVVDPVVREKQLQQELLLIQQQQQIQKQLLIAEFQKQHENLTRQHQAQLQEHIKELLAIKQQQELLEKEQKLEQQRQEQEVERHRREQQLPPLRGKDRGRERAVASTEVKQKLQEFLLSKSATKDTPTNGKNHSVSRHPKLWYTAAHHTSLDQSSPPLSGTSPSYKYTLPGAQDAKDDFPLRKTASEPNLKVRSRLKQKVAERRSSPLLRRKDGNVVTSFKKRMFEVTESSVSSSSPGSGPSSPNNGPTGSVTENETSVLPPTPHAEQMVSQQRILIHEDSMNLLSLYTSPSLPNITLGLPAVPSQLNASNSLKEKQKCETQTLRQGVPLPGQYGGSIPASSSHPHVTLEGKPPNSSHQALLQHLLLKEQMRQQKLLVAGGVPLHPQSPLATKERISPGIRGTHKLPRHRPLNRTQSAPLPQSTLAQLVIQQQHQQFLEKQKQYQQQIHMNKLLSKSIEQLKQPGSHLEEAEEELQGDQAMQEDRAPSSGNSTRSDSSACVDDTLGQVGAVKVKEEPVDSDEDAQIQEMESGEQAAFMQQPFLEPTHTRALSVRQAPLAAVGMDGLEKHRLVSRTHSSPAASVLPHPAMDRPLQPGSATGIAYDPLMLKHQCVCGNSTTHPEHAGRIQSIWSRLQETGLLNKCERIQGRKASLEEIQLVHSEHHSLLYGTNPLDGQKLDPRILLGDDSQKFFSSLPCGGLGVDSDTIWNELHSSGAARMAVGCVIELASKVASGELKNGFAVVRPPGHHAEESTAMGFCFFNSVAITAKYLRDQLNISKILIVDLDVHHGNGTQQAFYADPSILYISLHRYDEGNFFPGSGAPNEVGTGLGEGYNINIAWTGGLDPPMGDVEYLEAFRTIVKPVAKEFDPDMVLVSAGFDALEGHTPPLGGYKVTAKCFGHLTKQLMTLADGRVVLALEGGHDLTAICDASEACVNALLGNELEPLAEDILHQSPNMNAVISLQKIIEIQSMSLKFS
Sodium-dependent noradrenaline transporter, sequence (P23975 whole entry): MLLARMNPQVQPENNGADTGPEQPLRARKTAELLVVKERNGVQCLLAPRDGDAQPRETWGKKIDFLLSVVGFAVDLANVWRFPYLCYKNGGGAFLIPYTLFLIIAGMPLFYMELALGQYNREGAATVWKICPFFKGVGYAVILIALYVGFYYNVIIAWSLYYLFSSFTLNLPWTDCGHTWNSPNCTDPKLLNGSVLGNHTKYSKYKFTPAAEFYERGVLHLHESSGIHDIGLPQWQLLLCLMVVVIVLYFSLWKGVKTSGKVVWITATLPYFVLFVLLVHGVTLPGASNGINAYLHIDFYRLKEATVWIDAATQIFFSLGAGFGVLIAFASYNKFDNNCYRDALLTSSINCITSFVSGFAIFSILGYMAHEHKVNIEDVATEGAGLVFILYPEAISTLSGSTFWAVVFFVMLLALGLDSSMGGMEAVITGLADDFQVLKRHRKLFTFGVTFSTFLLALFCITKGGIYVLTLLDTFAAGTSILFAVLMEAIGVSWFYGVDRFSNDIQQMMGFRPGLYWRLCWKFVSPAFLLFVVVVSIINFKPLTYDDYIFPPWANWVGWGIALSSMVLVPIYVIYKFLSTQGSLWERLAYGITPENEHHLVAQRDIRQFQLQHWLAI
Histone deacetylase 8, sequence (Q9BY41 whole entry): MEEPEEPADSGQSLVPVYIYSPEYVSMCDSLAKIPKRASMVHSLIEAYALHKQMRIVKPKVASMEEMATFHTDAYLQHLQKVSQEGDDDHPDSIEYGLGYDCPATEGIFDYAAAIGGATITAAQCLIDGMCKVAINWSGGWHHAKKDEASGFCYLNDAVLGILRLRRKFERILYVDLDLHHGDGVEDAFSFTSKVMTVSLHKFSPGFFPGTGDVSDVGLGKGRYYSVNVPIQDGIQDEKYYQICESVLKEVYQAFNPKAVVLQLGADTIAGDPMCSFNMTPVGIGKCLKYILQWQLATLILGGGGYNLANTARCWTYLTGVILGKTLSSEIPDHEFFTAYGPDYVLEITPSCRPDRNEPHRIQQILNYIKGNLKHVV
Cannabinoid receptor 2, sequence (P34972 whole entry): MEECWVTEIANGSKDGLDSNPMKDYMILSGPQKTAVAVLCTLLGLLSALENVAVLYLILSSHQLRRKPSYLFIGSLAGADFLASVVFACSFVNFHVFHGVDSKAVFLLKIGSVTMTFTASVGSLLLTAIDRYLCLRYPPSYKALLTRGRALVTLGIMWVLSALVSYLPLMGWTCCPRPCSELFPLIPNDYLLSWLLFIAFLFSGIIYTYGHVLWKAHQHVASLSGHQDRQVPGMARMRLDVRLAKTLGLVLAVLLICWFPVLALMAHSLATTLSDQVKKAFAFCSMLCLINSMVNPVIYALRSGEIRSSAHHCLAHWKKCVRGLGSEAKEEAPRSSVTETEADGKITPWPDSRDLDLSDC
Substance-P receptor, sequence (P25103 whole entry): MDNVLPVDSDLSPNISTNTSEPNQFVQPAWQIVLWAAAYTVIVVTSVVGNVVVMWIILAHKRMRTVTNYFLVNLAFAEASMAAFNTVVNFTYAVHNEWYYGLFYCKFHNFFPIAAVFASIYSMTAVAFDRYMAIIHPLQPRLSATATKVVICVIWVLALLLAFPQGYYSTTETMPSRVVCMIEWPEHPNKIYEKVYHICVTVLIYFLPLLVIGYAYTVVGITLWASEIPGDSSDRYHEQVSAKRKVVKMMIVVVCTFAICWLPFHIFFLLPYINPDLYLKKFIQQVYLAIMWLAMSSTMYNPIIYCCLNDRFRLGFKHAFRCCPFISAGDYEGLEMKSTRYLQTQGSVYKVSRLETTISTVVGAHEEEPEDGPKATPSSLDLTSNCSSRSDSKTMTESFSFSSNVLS
Mu-type opioid receptor, sequence (P35372 whole entry): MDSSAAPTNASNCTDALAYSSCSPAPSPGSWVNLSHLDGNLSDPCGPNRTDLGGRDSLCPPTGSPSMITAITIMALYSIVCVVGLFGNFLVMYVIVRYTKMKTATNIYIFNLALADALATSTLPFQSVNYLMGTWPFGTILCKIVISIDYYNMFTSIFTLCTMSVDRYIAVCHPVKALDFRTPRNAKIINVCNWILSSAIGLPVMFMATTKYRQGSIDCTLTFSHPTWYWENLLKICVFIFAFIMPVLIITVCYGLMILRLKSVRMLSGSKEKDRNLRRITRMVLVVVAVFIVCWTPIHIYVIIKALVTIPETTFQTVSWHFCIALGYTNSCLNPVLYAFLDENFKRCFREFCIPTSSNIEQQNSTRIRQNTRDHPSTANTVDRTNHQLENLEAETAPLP

Consider `O=C(O)CCNc1cc(N2CCc3ccccc3CC2)nc(-c2ccccn2)n1`, for which the XC50 at Histone deacetylase 8 was above 300 µM; in test [1] it was above 50 µM; on Histone deacetylase 11 it was above 300 µM; in [2] it was 50 µM; at Histone deacetylase 9 it was above 300 µM; on Mu-type opioid receptor, above 100 µM. The XC50 in test [3] is above 40 µM; in [4], above 125 µM; in test [5], above 50 µM; on Substance-P receptor, above 40 µM; in test [6] it was above 32 µM; in test [7] it was above 40 µM. For the same molecule, the XC50 was above 32 µM on Cannabinoid receptor 2, above 100 µM on D(2) dopamine receptor, above 300 µM in test [8] and above 100 µM in [9].

Regarding `CCOC(=O)CCNc1cc(N2CCc3ccccc3CC2)nc(-c2cccnc2)n1`, the Activity with Macrophage [10] was 1399 a.u; in the test on Macrophage [11] it was 4600 a.u; in the test with Macrophage [12], 65 a.u; in the test on Macrophage [13] it was 17395 a.u; in the test on Macrophage [14], 10108 a.u; with Macrophage [15] it was 10100 a.u. Further, the Activity was determined as 211785 a.u in the test on Macrophage [16]; 5618140 a.u in the test on Macrophage [17]; 32 a.u in the test with Macrophage [18]; 1497395 a.u with Macrophage [19]; 512 a.u in the test with Macrophage [20]; 67356 a.u in the test with Macrophage [21]. Also, the Activity is 815450 a.u in the test on Macrophage [22]; 39565 a.u with Macrophage [23]; 2254 a.u with Macrophage [24]; 558833 a.u in the test on Macrophage [25]; 748 a.u with Macrophage [26].

For `CCOC(=O)CCNc1cc(N2CCc3ccccc3CC2)nc(-c2ccccn2)n1`, the Activity came out at 293 a.u with Macrophage [10]; 6284 a.u with Macrophage [11]; 641 a.u with Macrophage [12]; 3068 a.u with Macrophage [13]; 8686 a.u with Macrophage [14]; 11754 a.u in the test with Macrophage [15]. In addition, the Activity in the test with Macrophage [16] came out at 140386 a.u; in the test on Macrophage [17], 1556795 a.u; in the test on Macrophage [18] it was 403 a.u; in the test with Macrophage [19], 242914 a.u; in the test on Macrophage [20], 1586 a.u; in the test with Macrophage [21], 10602 a.u. In addition, the Activity with Macrophage [22] is 170309 a.u; in the test with Macrophage [23] it was 43866 a.u; in the test on Macrophage [24], 233 a.u; in the test with Macrophage [25], 157533 a.u; in the test with Macrophage [26], 372 a.u.

Take `O=C(O)CCNc1cc(N2CCc3ccccc3CC2)nc(-c2cccnc2)n1`: the XC50 at Histone deacetylase 8 was above 300 µM; in test [1] it was above 50 µM; at Histone deacetylase 11, above 300 µM; in test [2] it was 16 µM; on Histone deacetylase 9, above 300 µM; at Mu-type opioid receptor, above 100 µM. For the same molecule, the XC50 was above 40 µM in [3]; above 125 µM in test [4]; above 50 µM in [5]; above 40 µM on Substance-P receptor; above 32 µM in [6]; above 40 µM in [7]. Moreover, the XC50 was above 32 µM on Cannabinoid receptor 2, above 100 µM at D(2) dopamine receptor, above 300 µM in [8] and above 100 µM in [9].
